# Patent US20130253179A1, “Functionalization Processes and Reactants Used in Such Processes Using an Isatoic Anhydride or a Derivative Thereof, Biological Molecules Thus Treated and Kits” (priority 2010, published 2013)
# How the values were obtained:
# [1] = system: model oligoribonucleotide (ORN) with 27 bases; test: Functionalisation of a model ORN with 27 bases: functionalisation rate and regiospecificity by HPLC/LC-MS after nuclease P1/alkaline phosphatase hydrolysis; format: biochemical; conditions: compound 30 mM, 1 h at 65° C., 250 mM TEAAc pH 7, 25% DMSO; for Fr (corrected functionalisation rate): ORN 8 nmol
# Excerpt: For this purpose, a fixed quantity of ORN is reacted with an isatoic anhydride derivative conjugated to a molecule of interest (Cy3 IA Me (13)), under various temperature conditions, duration conditions, reaction medium conditions, etc. HPLC monitoring of the reaction at 260 nm makes it possible to detect the disappearance of the peak corresponding to the initial ORN and the appearance of peaks corresponding to acylated ORN. These products have a greater retention time and have an absorption spectrum corresponding to both that of ORN and that of the fluorescent label.
# However, for greater precision on the functionalisation site and to precisely evaluate the functionalisation rate (Fr), the ORN population (labelled and unlabelled) is separated from the excess label by precipitation with acetone/lithium perchlorate or by gel permeation (NAP 5™, GE Health Care. Then the ORNs thus obtained are submitted to hydrolysis with the nuclease P1 (Aldrich, Saint Louis, USA) and with the alkaline phosphatase (Aldrich, Saint Louis, USA), in order to hydrolyse the phosphate diester bonds of ORN.
# The ORN functionalisation rate (Fr) is evaluated by measuring: • the area corresponding to the terminal mononucleoside adducts (functionalised at 2′ and at 3′) and the area corresponding to the acylated dinucleosides (functionalised internally on 2′OH) • compared to the area of the peaks corresponding to the four ribonucleosides.
# The internal/external regiospecificity of the acylation is evaluated by measuring the relative proportion of the areas corresponding to the: • end mono-nucleotides acylated at 2′ and at 3′ • and di-nucleotides acylated internally on 2′OH • which are easily detectable by HPLC.
# The mixture is incubated for 60 minutes at 65° C. in an oven on a rack which is temperature-balanced in advance. An HPLC injection (conditions 3) makes it possible to monitor a formation of a certain quantity of acylated ORN as described in FIG. 6. To eliminate the salts and the excess label, the mixture is then purified on Sephadex NAP 5 gel (GE Health Care, Uppsala, Sweden)) and/or triple precipitation in 1.2 mL of a 180 mM Acetone/LiClO4 75/25 mixture. To finish, the pellet is dried with acetone and is evaporated with the centrifugal evaporator (RCT 60, Jouan, St Herblain, France). The residue is then taken up in 33 μL of a H2O/DMSO 85/15 solution and an HPLC injection (conditions 3) is performed in order to verify the proper elimination of the label. There is added to the mixture 2 μL of nuclease P1 (ref.: N8630 Sigma-Aldrich, St Louis, USA) in 1 U/μl solution in its buffer: 20 mM sodium acetate pH 5.5; 1 mM ZnCl2; 50 mM NaCl and 1 μL of 7 u/μl alkaline phosphatase in water (Ref. P7923-2KU Sigma-Aldrich, St Louis, USA). The medium is left at ambient temperature for 4 to 6 hours. It is then injected into HPLC (conditions 3) in order to verify the total hydrolysis of the ORN and in order to analyse the nature of the fragments obtained in accordance with what was described above and as described in FIG. 6.
# The functionalisation rate is evaluated with UV at 260 nm by integration of the clusters corresponding to the acylated dinucleotides and to the acylated nucleosides) relative to the clusters corresponding to the four ribonucleosides. The ratio of the population of acylated dinucleotides to the population of acylated nucleosides is evaluated in the same way in order to evaluate the percentage of functionalisation on the 3′ terminal end.
# The functionalisation rate values, presented within the framework of this invention, take into account the correction factor which must be applied according to the molar extinction coefficient at 260 nm of each of the nucleosides and according to whether they are nucleosides or dinucleotides. […]
# ODN with 53 bases = test: RNA vs DNA chemoselectivity: functionalisation of an ODN with 53 bases; format: biochemical; conditions: compound 30 mM, DMSO/TEAAc buffer 25/75 (250 mM pH 7), 1 h at 65° C.
# Description: After precipitation with acetone and hydrolysis with nuclease P1 and alkaline phosphatase, the hydrolysed fragments are analysed by LC-MS, as described in example 3. An example of the chromatograms monitoring the reaction of ODN or ORN with compound 13 is shown in FIG. 9, in which graphs A, B and C respectively represent ORN, ORN functionalised with compound 13 and precipitated, and ORN functionalised with 13, precipitated and hydrolysed. Graphs D, E and F represent the same thing, but with ODN.
# in vitro RNA transcripts = test: Detection on Affymetrix DNA chip of biotinylated in vitro RNA transcripts; set-up: species or system human; conditions: 30 mM compound, 60 mins at 65° C.; background in the order of 30 RFU
# Description: The in vitro transcripts are generated by in vitro transcription of the total RNA extracted from blood samples with the aid of the MessageAmp II kit (Reference AM 1751, AMBION, Austin, Tex.). Briefly, after extraction of the total RNA from the blood cells, a first reverse transcription step by the enzyme […] is performed in order to generate the DNA strand complementary to the mRNA (cDNA). The RNA strand is then digested by the RNase H before forming the double strand of cDNA by means of a DNA polymerase. Finally, the antisense RNA (in vitro transcripts) is obtained from the cDNA using the transcriptase T7.
# 17.6 μL of previously obtained solution of in vitro RNA transcripts (568 ng/μl), 9.4 μL of ultrapure water and 3 μL of 100 mM Zn(OAc)2 pH 6.5 is mixed. This solution is then incubated for 15 mins at 70° C., and then placed immediately into ice.
# 30 μL of this solution is sampled, to which there is added 30 μL of a potassium phosphate solution (pH 7, 1M), 30 μL of ultrapure water and 30 μl of the compound SBiot IA Me (9) in a 120 mM solution in DMSO. […]
# The excess reagent is then removed in the same way as in example 7 by precipitation with isopropanol. As well as depositing on an Affymetrix chip GeneChip Human Genome U133 Plus 2.0 Array, ref 900470, Affymetrix, St Clara, USA), the detection and measurement of the fluorescence.
# physchem = conditions: water
Fr (corrected functionalisation rate) [1] [%],solubility (Solubility in water) [mM],External/internal regiospecificity (uncorrected ratio of areas acylated mononucleosides / acylated dinucleotides) [1],Structure (SMILES),corrected functionalisation rate of the ODN (ODN with 53 bases) [%],fluorescence intensities compared with background noise of unfunctionalised target IVTs (in vitro RNA transcripts),solubility (physchem) [mM]
1.2,1,–,"O=C(CCCCC1SCC2NC(=O)NC21)Nc1ccc2[nH]c(=O)oc(=O)c2c1 (stereo not shown) [5Biot IA 5, 5-biotin-isatoic anhydride]",–,–,–
2.6,–,55/45,"Cn1c(=O)oc(=O)c2cc(NC(=O)CCCCC3SCC4NC(=O)NC43)ccc21 (stereo not shown) [5Biot IA Me 9, 1-Methyl-5 biotin-isatoic anhydride]",0.1,very substantially greater than the background noise,–
1.6,–,60/40,"O=C(CCCCC1SCC2NC(=O)NC21)Nc1ccc2c(c1)c(=O)oc(=O)n2CCCS(=O)(=O)O (stereo not shown) [5Biot IA SO3^− 10, 1-propylsulfone-5-biotin-isatoic anhydride]",–,–,–
3.3,19,62/38,"O=C(CCCCC1SCC2NC(=O)NC21)NCCOCCOCCOCCOCCC(=O)Nc1ccc2[nH]c(=O)oc(=O)c2c1 (stereo not shown) [5Biot PEG4 IA 6, 5-biotin-hexyl ethylene glycol-isatoic anhydride]",–,–,–
4,50,60/40,"Cn1c(=O)oc(=O)c2cc(NC(=O)CCOCCOCCOCCOCCNC(=O)CCCCC3SCC4NC(=O)NC43)ccc21 (stereo not shown) [5Biot PEG4 IA Me 11, 1-methyl-5-biotin-hexyl ethylene glycol-isatoic anhydride]",–,–,–
1.2,–,50/50,"CC(=O)Nc1ccc2c(c1)c(=O)oc(=O)n2CC(=O)NCCOCCOCCNC(=O)CCCCC1SCC2NC(=O)NC21 (stereo not shown) [N(Biot PEG2) acetamido IA 19, 1-biotin-diethyleneglycol-5-acetamido-isatoic anhydride]",–,–,–
3.4,–,56/44,"O=C(CCCCC1SCC2NC(=O)NC21)NCCOCCOCCNC(=O)Cn1c(=O)oc(=O)c2ccccc21 (stereo not shown) [N(Biot PEG2)IA 18, 1-biotin-ethylene glycol-isatoic anhydride]",–,–,–
0.7,–,49/51,"O=C(CCCCCn1c(=O)oc(=O)c2ccccc21)NCCCOCCOCCOCCCNC(=O)CCCCC1SCC2NC(=O)NC21 (stereo not shown) [N(Biot PEG4) IA 21, N-(N-(biotin-dPEG3-propyl)-6-bromohexanamide) isatoic anhydride]",–,–,–

Structure (SMILES),Fr (corrected functionalisation rate) [1] [%],solubility (Solubility in water) [mM],External/internal regiospecificity (uncorrected ratio of areas acylated mononucleosides / acylated dinucleotides) [1],corrected functionalisation rate of the ODN (ODN with 53 bases) [%],fluorescence intensities compared with background noise of unfunctionalised target IVTs (in vitro RNA transcripts),solubility (physchem) [mM]
O=C(CCCCC1SCC2NC(=O)NC21)NCCOCCOCCOCCOCCC(=O)NCCSSCCC(=O)Nc1ccc2[nH]c(=O)oc(=O)c2c1 (stereo not shown) [5Biot PEG4 SS IA 23],3.1,–,52/48,–,–,–
"CCN1/C(=C\C=C\C2=[N+](CCCCCC(=O)Nc3ccc4[nH]c(=O)oc(=O)c4c3)c3ccc(S(=O)(=O)[O-])cc3C2(C)C)C(C)(C)c2cc(S(=O)(=O)O)ccc21 [Cy3 IA 7, 5-Cy3 isatoic anhydride]",2.6,–,61/39,–,–,> 100
